The source of these data is publication PMC3549917, “Characterization of two antimicrobial peptides produced by a halotolerant Bacillus subtilis strain SK.DU.4 isolated from a rhizosphere soil sample” (AMB Express, 2013).

Common to all, as to experiment: Well diffusion assay, inhibition spectrum
What all share (assay type): cell-based

Assay [1] concerns L. monocytogenes MTCC839. To be noted: 100 μl of the lowest dilution inhibiting test strain, similar results in three individual experiments. The protocol: (§1) The bacteriocin activity was determined by well diffusion assay. The strain was grown for 24 h in 200 ml nutrient broth (NB, Himedia) using 500 ml flask and subsequently cells were removed by centrifugation (8000 rpm for 20 min, 4°C). The supernatant obtained was filtered by using 0.22 μm filter (Millipore), diluted by two fold and used to test the activity as mentioned earlier (Singh et al. [2012]). The antimicrobial peptide production was also tested by growing the strain in minimal medium. To examine the antimicrobial activity, S. aureus cells were processed for scanning electron micrograph (SEM) as described by earlier (Singh et al. [2012]). Growth curve was prepared to examine the bacteriocin production along with the growth of strain SK.DU4.
(§2) Although the antimicrobial peptides were produced in NB for large scale preparation, the influence of different carbon and nitrogen sources on peptides production was tested using minimal medium. […] The optimum pH for the production of antimicrobial peptides was 7.2 and there was no significant change in pH was observed during the production of antimicrobial peptides. The bacteriocin-like peptide was extracted from CFB by hydrophobic interaction chromatography using Diaion HP-20 beads and purified by a combination of chromatography techniques as described previously (Singh et al. [2012]). Subsequently, the purified peptide was tested for antimicrobial activity against an array of Gram-positive and Gram-negative bacteria, yeasts and fungi strains using well diffusion assays.

The subject of assay [2] is M. luteus MTCC106. The conditions noted are these: 100 μl of the lowest dilution inhibiting test strain, similar results in three individual experiments. The protocol: as §1, §2
The subject of assay [3] is B. subtilis MTCC121. The conditions noted are these: Polymyxin B at 300 U. Here is the method: as §1, §2
In assay [4] the test system is S. mutans MTCC497. The conditions noted are these: lipopeptide combined with bacteriocin-like peptide. The protocol:
as §1, §2

Where no end group is shown, it is not given here.

For “DYNQPNS (also: lariat or depsi (positions not given here)) [Lipopeptide, cyclic iturin-like lipopeptide (m/z 1056 Da), β-hydroxy fatty acid linked to Ser of heptapeptide, from strain SK.DU.4]”, the inhibition zone in assay [1] and in assay [2] was 11 mm each time. Also, the Inhibition activity result in assay [3] is on record as “inhibited growth”. Further, the “growth inhibition in combination with bacteriocin-like peptide” value in assay [4] is recorded as “inhibited the growth”.
